Results from a melting point compilation (Tetko et al.; mined from patent text by program, amines drawn as free bases though some values may be those of a salt).

SMILES | melting point
Cc1cccc(C)c1N(CC(=O)NCC(=O)O)C(=O)c1ccc(Cl)cc1 | 200 to 201 °C
CC1CC2=C(Cc3ccccc32)C([Si](C)(C)C2CC(C)CC3=C2Cc2ccccc23)C1 (stereo not given) | 179 to 180 °C
O=C1C(NCCN2CCCC2)=CC(=O)c2oc(-c3cccc(Br)c3)nc21 | 169 to 170 °C
COc1ccc2c(c1)N(c1ccc(F)cc1)C(=O)C2(C)N (stereo not given) | 140 to 141 °C
CN(C(CCn1c(=O)cc(Cl)n(C)c1=O)C(=O)NO)S(=O)(=O)c1ccc(Oc2ccccc2)cc1 (stereo not given) | 90 to 93 °C
Nc1cccc(-c2ccc(OCCN3CC4C(N)C4C3)c3ccccc23)n1 (stereo not given) | 140 to 155 °C
CN1C(=O)CC(c2ccccc2)C1C(O)Cc1cccc(Cl)c1 (stereo not given) | 50 to 52 °C
COc1cc2c(c3c1OC(C)(C)C3)C(c1ccc(-c3ccc(NC(C)=O)cc3)cc1)=NC(C)(C)C2 | 128 to 132 °C
CC(C)c1cccc(S(=O)(=O)n2c(Cc3ccc(C(=O)O)cc3)cc3cc(C(F)(F)F)ccc32)c1 | 175 °C
CCOC(=O)c1c(C(C)(C)O)nc(CC)n1Cc1ccc(-c2ccccc2-c2nnn[nH]2)cc1 | 166 to 167 °C
CC(C)CC(N)S(=O)(=O)O (stereo not given) | 142 to 144 °C
O=S(=O)(Oc1cccc(OCCC(c2ccccc2)(c2ccccc2)c2ccccc2)c1)c1ccccc1 | 124 to 125 °C
COc1ccc(COCC(O)Cc2cccnc2)cc1 (stereo not given) | 55 to 56 °C
CC(=O)Nc1c(N(C)C)cnn(-c2ccccc2)c1=O | 186 to 187 °C
Cc1cc2nccn2nc1OCCCS(=O)(=O)N1CCN(C)CC1 | 118 to 120 °C
COP(=O)(CC(=O)C(C)(C)Cc1ccccc1)OC | 39 to 46 °C
CCn1c2ccc3ccccc3c2c2cccc(C=O)c21 | 148 to 149 °C
O=C(C=C(C(=O)O)c1csc(NC(=O)OCc2ccccc2)n1)OCc1ccccc1 | 144 to 146 °C
COC(=O)CCCc1cc2nc(Cl)ccc2n1S(=O)(=O)c1cccc(C(C)C)c1 | 92 °C
O=C1CCc2c(-c3ccncc3)sc(-c3ccncc3)c21 | 168 to 170 °C
CCCCc1nc2c(N)nc3cccnc3c2n1CCCCN | 212 to 213 °C
CN(C)S(=O)(=O)c1cc2[nH]c(=O)c(=O)[nH]c2cc1[N+](=O)[O-] | 318 to 332 °C
Cc1ccc(S(=O)(=O)OCC2CN(c3cc(F)c(N4CCN(C(=O)OC(C)(C)C)CC4)c(F)c3)C(=O)O2)cc1 (stereo not given) | 150 to 152 °C
COc1ccc(C(O)=C(C#N)C(=O)C(C)(C)C)c([N+](=O)[O-])c1 | 85 to 88 °C
N#Cc1cccnc1N1CCN(CC(=O)Nc2cccc(C(F)(F)F)c2)CC1 | 157 to 158 °C

SMILES | melting point
CC1(C)Oc2ccc(C#N)cc2[C@@H](NC(=O)Nc2ccc(-c3ncno3)cc2)[C@@H]1O | 162 to 167 °C
Cc1cccc(C(=O)Nc2cc(-c3c(-c4ccc(F)c(C)c4)nc4cccnn34)ccn2)c1 | 203 to 204 °C
CS(=O)(=O)Nc1cccc(Nc2nc(N3CCC(O)C3)c3nc[nH]c3n2)c1 (stereo not given) | 243 to 248 °C
COC(=O)C(Cc1c[nH]c2ccccc12)NCOC(C)[Si](C)(C)C (racemic) | 113 to 115 °C
Fc1cc(Cl)c2nc(Cl)sc2c1N=C=S | 80 to 81 °C
COc1ccc(C(=O)CSCc2ccncc2)cc1 | 64 to 65 °C
COC(=O)CCc1oc2ccc(C#N)cc2c1C(=O)c1ccc(O)cc1 | 156 to 158 °C
CCOC(=N)C(O)c1ccccc1 (stereo not given) | 65 to 67 °C
CCC(C)COC(=O)c1ccc(-c2ccc(O)cc2)cc1 (stereo not given) | 112 to 113 °C
O=C(O)CCC(=NOCc1ccc(OCc2ccc3ccccc3n2)cc1)c1ccccc1 | 133 to 134 °C
O=C(O)c1cccc2c(Cl)c3ccccc3cc12 | 275 to 277 °C
Cc1ccc(-c2ccc3c(c2)C=C(C(=O)Nc2ccc(CN4CCN(CCO)CC4)cc2)CC3)cc1 | 185 to 187 °C
CC(C)c1ccc(-n2nc(Cl)cc2-c2ccc(S(C)(=O)=O)cc2)cc1 | 146 to 148 °C
COC(=O)C1C(c2ccc(Br)cc2)CC2CCC1N2C (stereo not given) | 114 to 116 °C
CS(=O)(=O)c1cccc(NC(=O)c2cnn3c(C(F)F)cc(-c4ccc(Cl)c(Cl)c4)nc23)c1 | 262 °C
CC(NC(=O)c1cc(OCC(F)(F)F)ccc1OCC(F)(F)F)C1CCCCN1 (stereo not given) | 95 to 97 °C
N#CCOc1cccc2c1SCCC2 | 66 °C
CN(C1CCN(Cc2cnc3ccccc3c2)CC1)S(=O)(=O)c1ccc(Nc2nccc(Nc3ccc(F)cc3)n2)cc1 | 125 to 127 °C
O=c1c2c(F)cccc2nc2sccn12 | 205 to 207 °C
C=C(C)[C@H]1CC[C@@](C)(O)[C@H](NC23CC4CC(CC(C4)C2)C3)C1 | 94 to 96 °C
COC(=O)C=Cc1cncn1Cc1ccccc1 | 137 to 139 °C
CC(=O)c1c(-c2ccc(OCCBr)c3ccccc23)oc2ccccc12 | 115 to 117 °C
COP(=O)(OC)C1=C(C)NC(C)=C(C(=O)OCCN(C)Cc2ccccc2)C1c1cccc([N+](=O)[O-])c1 (stereo not given) | 101 to 103 °C
CS(=O)(=O)Nc1ccc(CCCOCCCCCCNCC(O)c2cc(O)cc(O)c2)cc1 (stereo not given) | 66 to 69 °C
C[C@@H](n1cnc2cc(Br)c(F)cc2c1=O)[C@](O)(Cn1cncn1)c1ccc(F)cc1F | 185 to 186 °C
